These results are taken from patent US20250179059A1 (The Regents of the University of California, priority 2021, published 2025).

Assay [1] relates to human SKM-1 acute myeloid leukemia cells. Nature of the assay: SKM-1 antiproliferation cell-based assay (ATPlite). The following applies: Homo sapiens, SKM-1, 96 h, SKM-1 antiproliferation assay, 4 days, Table C2. The procedure, abridged:
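Log-phase cells in RPMI 1640/15% FBS were seeded at 34722 cells/mL and exposed for 4 days to nine-concentration DMSO serial dilutions in triplicate. Viability was read as ATP luminescence (ATPlite 1step), and IC50 values came from variable-slope non-linear regression.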
(Cellular ATP, detected with luciferase, serves as a proxy for viable cell number.)

In assay [2] the target is T1, human BRD4 bromodomain II (Homo sapiens, UniProt O60885).
T1 construct: human BRD4 bromodomain II [based on Genbank NM_058243, residues 349-460]; host or cells: E. coli
Nature of the assay: Bromodomain binding assay (AlphaScreen), BRD4 BDII. As to conditions: AlphaScreen assay, Table C2; read-out: BRD4 BDII IC50. In short, it runs like this: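 E. coli-expressed N-terminal His6-tagged human BRD4 BDII (residues 349-460) or BDI (residues 44-170) was preincubated 30 min at room temperature with compound (10-point, 3-fold) in pH 7.5 HEPES buffer, 1% DMSO. Displacement of biotinylated tetra-acetylated H4 1-21 peptide was read by AlphaScreen, and IC50 came from curve fitting.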

For `Cn1ccn(-c2ccc(-c3cc(F)cc(-c4ccnc(N5CCN[C@H](CC(=O)O)C5)c4)c3O)cc2Cl)c1=O` [Example 653], the GI50 (in general, the concentration that inhibits growth by half) in assay [1] is 300 to 3000 nM. The IC50 (usually the midpoint of a concentration-inhibition curve) in assay [2] lay in the range of 0.01 to 1 nM.

For `Cn1ccn(-c2ccc(-c3cc(F)cc(-c4ccnc(C5CCCNC5)c4)c3O)cc2Cl)c1=O` (stereo not shown) [Example 654, 1-(3-chloro-5′-fluoro-2′-hydroxy-3′-(2-(piperidin-3-yl)pyridin-4-yl)-[1,1′-biphenyl]-4-yl)-3-methyl-1H-imidazol-2(3H)-one], the GI50 in assay [1] lay in the range of 0.3 to 30 nM. Besides, the half-maximal inhibitory concentration (IC50) in assay [2] was 0.01 to 1 nM.

For `Cn1ccn(-c2ccc(-c3cc(F)cc(-c4ccnc(N5CC6CCNC6C5)c4)c3O)cc2Cl)c1=O` (stereo not shown) [Example 655, 1-(3-chloro-5′-fluoro-3′-(2-(hexahydropyrrolo[3,4-b]pyrrol-5(1H)-yl)pyridin-4-yl)-2′-hydroxy-[1,1′-biphenyl]-4-yl)-3-methyl-1H-imidazol-2(3H)-one], in assay [1], the GI50 lay in the range of 0.3 to 30 nM. In assay [2], the half-maximal inhibitory concentration (IC50) lay in the range of 0.01 to 1 nM.

In turn, `Cn1ccn(-c2ccc(-c3cc(F)cc(-c4ccnc(N5CC6CNC6C5)c4)c3O)cc2Cl)c1=O` (stereo not shown) [Example 656, 1-(3′-(2-(3,6-diazabicyclo[3.2.0]heptan-3-yl)pyridin-4-yl)-3-chloro-5′-fluoro-2′-hydroxy-[1,1′-biphenyl]-4-yl)-3-methyl-1H-imidazol-2(3H)-one] returned a GI50 in assay [1] of 0.3 to 30 nM. In assay [2], the IC50 was 0.01 to 1 nM.

Take `Cn1ccn(-c2ccc(-c3cc(F)cc(-c4ccnc(C5=CCCNC5)c4)c3O)cc2Cl)c1=O` [Example 657, 1-(3-chloro-5′-fluoro-2′-hydroxy-3′-(1′,2′,5′,6′-tetrahydro-[2,3′-bipyridin]-4-yl)-[1,1′-biphenyl]-4-yl)-3-methyl-1H-imidazol-2(3H)-one]: the GI50 in assay [1] lay within 0.3 to 30 nM. In addition, the IC50 in assay [2] fell in the range of 0.01 to 1 nM.

Take `CN1CCC2CN(c3cc(-c4cc(F)cc(-c5ccc(-n6ccn(C)c6=O)c(Cl)c5)c4O)ccn3)CC21` (stereo not shown) [Example 658, 1-(3-chloro-5′-fluoro-2′-hydroxy-3′-(2-(1-methylhexahydropyrrolo[3,4-b]pyrrol-5(1H)-yl)pyridin-4-yl)-[1,1′-biphenyl]-4-yl)-3-methyl-1H-imidazol-2(3H)-one]: in assay [1], the GI50 lay in the range of 0.3 to 30 nM. The IC50 in assay [2] lay in the range of 0.01 to 1 nM.

In turn, `CN1CC2CN(c3cc(-c4cc(F)cc(-c5ccc(-n6ccn(C)c6=O)c(Cl)c5)c4O)ccn3)CC21` (stereo not shown) [Example 659, 1-(3-chloro-5′-fluoro-2′-hydroxy-3′-(2-(6-methyl-3,6-diazabicyclo[3.2.0]heptan-3-yl)pyridin-4-yl)-[1,1′-biphenyl]-4-yl)-3-methyl-1H-imidazol-2(3H)-one] yielded a GI50 in assay [1] of 0.3 to 30 nM. Also, the concentration for half-maximal inhibition (IC50) in assay [2] is 0.01 to 1 nM.

Turning to `COCCCn1cc(-c2cc(F)cc(-c3ccc(-n4ccn(C)c4=O)c(Cl)c3)c2O)cc(N2CCN[C@H](C)C2)c1=O` [Example 660, (R)-5-(3′-chloro-5-fluoro-2-hydroxy-4′-(3-methyl-2-oxo-2,3-dihydro-1H-imidazol-1-yl)-[1,1′-biphenyl]-3-yl)-1-(3-methoxypropyl)-3-(3-methylpiperazin-1-yl)pyridin-2(1H)-one], the GI50 in assay [1] lay in the range of 30 to 300 nM. Besides, the IC50 in assay [2] lay in the range of 0.01 to 1 nM.

`CC(C)N1CCN(c2cc(-c3cc(F)cc(-c4ccc(-n5ccn(C)c5=O)c(Cl)c4)c3O)cn(C)c2=O)CC1` [Example 661, 5-(3′-chloro-5-fluoro-2-hydroxy-4′-(3-methyl-2-oxo-2,3-dihydro-1H-imidazol-1-yl)-[1,1′-biphenyl]-3-yl)-3-(4-isopropylpiperazin-1-yl)-1-methylpyridin-2(1H)-one] returned a 50% growth inhibitory concentration (GI50) in assay [1] of 0.3 to 30 nM. Also, the concentration for half-maximal inhibition (IC50) in assay [2] lay in the range of 0.01 to 1 nM.

For the molecule `Cn1ccn(-c2ccc(-c3cc(F)cc(-c4ccnc(N5CCN(C67CC(C6)C7)CC5)c4)c3O)cc2Cl)c1=O` [Example 662, 1-(3′-(2-(4-(bicyclo[1.1.1]pentan-1-yl)piperazin-1-yl)pyridin-4-yl)-3-chloro-5′-fluoro-2′-hydroxy-[1,1′-biphenyl]-4-yl)-3-methyl-1H-imidazol-2(3H)-one], the concentration for 50% growth inhibition (GI50) in assay [1] was 30 to 300 nM. Further, in assay [2], the IC50 was in the range of 1 to 10 nM.

For `CC(C)N1CCN(c2cncc(-c3cc(F)cc(-c4ccc(-n5ccn(C)c5=O)c(Cl)c4)c3O)c2)CC1` [Example 663, 1-(3-chloro-5′-fluoro-2′-hydroxy-3′-(5-(4-isopropylpiperazin-1-yl)pyridin-3-yl)-[1,1′-biphenyl]-4-yl)-3-methyl-1H-imidazol-2(3H)-one], the 50% growth inhibitory concentration (GI50) in assay [1] fell in the range of 0.3 to 30 nM. Moreover, in assay [2], the IC50 lay in the range of 0.01 to 1 nM.

For `Cn1ccn(-c2ccc(-c3cc(F)cc(-c4cncc(N5CCN(C(C)(C)C)CC5)c4)c3O)cc2Cl)c1=O` [Example 664, 1-(3′-(5-(4-(tert-butyl)piperazin-1-yl)pyridin-3-yl)-3-chloro-5′-fluoro-2′-hydroxy-[1,1′-biphenyl]-4-yl)-3-methyl-1H-imidazol-2(3H)-one], the GI50 in assay [1] is 0.3 to 30 nM. Moreover, the IC50 in assay [2] lay within 0.01 to 1 nM.

`Cn1ccn(-c2ccc(-c3cc(F)cc(-c4ccnc(N5CCNCCC5=O)c4)c3O)cc2Cl)c1=O` [Example 665, 4-(4-(3′-chloro-5-fluoro-2-hydroxy-4′-(3-methyl-2-oxo-2,3-dihydro-1H-imidazol-1-yl)-[1,1′-biphenyl]-3-yl)pyridin-2-yl)-1,4-diazepan-5-one] showed a GI50 in assay [1] of 30 to 300 nM. Further, in assay [2], the IC50 was 0.01 to 1 nM.

In the case of `COC[C@@H]1CN(c2cc(-c3cc(F)cc(-c4ccc(-n5ccn(C)c5=O)c(Cl)c4)c3O)ccn2)CCN1` [Example 666, (S)-1-(3-chloro-5′-fluoro-2′-hydroxy-3′-(2-(3-(methoxymethyl)piperazin-1-yl)pyridin-4-yl)-[1,1′-biphenyl]-4-yl)-3-methyl-1H-imidazol-2(3H)-one], the GI50 in assay [1] is 0.3 to 30 nM. The concentration for half-maximal inhibition (IC50) in assay [2] lay in the range of 0.01 to 1 nM.

Molecule `CC(C)[C@@H]1CN(c2cc(-c3cc(F)cc(-c4ccc(-n5ccn(C)c5=O)c(Cl)c4)c3O)ccn2)CCN1` [Example 667, (R)-1-(3-chloro-5′-fluoro-2′-hydroxy-3′-(2-(3-isopropylpiperazin-1-yl)pyridin-4-yl)-[1,1′-biphenyl]-4-yl)-3-methyl-1H-imidazol-2(3H)-one] yielded a GI50 in assay [1] of 0.3 to 30 nM. Further, the IC50 in assay [2] lay in the range of 0.01 to 1 nM.

On to `Cn1cc(-c2cc(F)cc(-c3ccc(-n4ccn(C)c4=O)c(Cl)c3)c2O)cc(N2CCN(C(C)(C)C)CC2)c1=O` [Example 668, 3-(4-(tert-butyl)piperazin-1-yl)-5-(3′-chloro-5-fluoro-2-hydroxy-4′-(3-methyl-2-oxo-2,3-dihydro-1H-imidazol-1-yl)-[1,1′-biphenyl]-3-yl)-1-methylpyridin-2(1H)-one], for which, in assay [1], the GI50 fell in the range of 0.3 to 30 nM. Further, the 50% inhibitory concentration (IC50) in assay [2] was in the range of 0.01 to 1 nM.

As for `C#CCN1CCN(c2cc(-c3cc(F)cc(-c4ccc(-n5ccn(C)c5=O)c(Cl)c4)c3O)ccn2)CC1` [Example 669, 1-(3-chloro-5′-fluoro-2′-hydroxy-3′-(2-(4-(prop-2-yn-1-yl)piperazin-1-yl)pyridin-4-yl)-[1,1′-biphenyl]-4-yl)-3-methyl-1H-imidazol-2(3H)-one], the GI50 in assay [1] was in the range of 30 to 300 nM. The concentration for half-maximal inhibition (IC50) in assay [2] lay within 0.01 to 1 nM.

In assay [1], `CC(C)N1CCN(c2cc(-c3cc(F)cc(-c4ccc(-n5ccn(C)c5=O)c(Cl)c4)c3O)cn3ccnc23)CC1` [Example 670, 1-(3-chloro-5′-fluoro-2′-hydroxy-3′-(8-(4-isopropylpiperazin-1-yl)imidazo[1,2-a]pyridin-6-yl)-[1,1′-biphenyl]-4-yl)-3-methyl-1H-imidazol-2(3H)-one] came in with a GI50 of 0.3 to 30 nM. The IC50 in assay [2] fell in the range of 0.01 to 1 nM.

Regarding `C[C@@H]1CN(c2cccc(-c3cc(F)cc(-c4ccc(-n5ccn(C)c5=O)c(Cl)c4)c3O)c2)CCN1` [Example 671, (R)-1-(3-chloro-5′-fluoro-2′-hydroxy-3″-(3-methylpiperazin-1-yl)-[1,1′:3′,1″-terphenyl]-4-yl)-3-methyl-1H-imidazol-2(3H)-one], the GI50 in assay [1] was 0.3 to 30 nM. The IC50 in assay [2] was 0.01 to 1 nM.

For the molecule `CC(C)N1CCN(c2cc(-c3cc(F)cc(-c4ccc(-n5ccn(C)c5=O)c(Cl)c4)c3O)cc3c2cnn3C)CC1` [Example 672, 1-(3-chloro-5′-fluoro-2′-hydroxy-3′-(4-(4-isopropylpiperazin-1-yl)-1-methyl-1H-indazol-6-yl)-[1,1′-biphenyl]-4-yl)-3-methyl-1H-imidazol-2(3H)-one], the GI50 in assay [1] fell in the range of 0.3 to 30 nM. In addition, in assay [2], the IC50 was 0.01 to 1 nM.

In the case of `C[C@@H]1CN(c2cc(-c3cc(F)cc(-c4ccc(-n5ccn(C)c5=O)c(Cl)c4)c3O)ccn2)CCO1` [Example 673, (R)-1-(3-chloro-5′-fluoro-2′-hydroxy-3′-(2-(2-methylmorpholino)pyridin-4-yl)-[1,1′-biphenyl]-4-yl)-3-methyl-1H-imidazol-2(3H)-one], the concentration for 50% growth inhibition (GI50) in assay [1] is 30 to 300 nM. The IC50 in assay [2] lay in the range of 0.01 to 1 nM.

In turn, `Cn1ccn(-c2ccc(-c3cc(F)cc(-c4ccnc(N5CCC6(CCO6)C5)c4)c3O)cc2Cl)c1=O` (stereo not shown) [Example 674, 1-(3′-(2-(1-oxa-6-azaspiro[3.4]octan-6-yl)pyridin-4-yl)-3-chloro-5′-fluoro-2′-hydroxy-[1,1′-biphenyl]-4-yl)-3-methyl-1H-imidazol-2(3H)-one] had a GI50 in assay [1] of 30 to 300 nM. For the same molecule, in assay [2], the IC50 is 0.01 to 1 nM.

On to `Cn1ccn(-c2ccc(-c3cc(F)cc(-c4ccnc(N5CCN6C(=O)OCCC6C5)c4)c3O)cc2Cl)c1=O` (stereo not shown) [Example 675, 2-(4-(3′-chloro-5-fluoro-2-hydroxy-4′-(3-methyl-2-oxo-2,3-dihydro-1H-imidazol-1-yl)-[1,1′-biphenyl]-3-yl)pyridin-2-yl)hexahydropyrazino[1,2-c][1,3]oxazin-6(2H)-one], for which the GI50 in assay [1] fell in the range of 30 to 300 nM. In assay [2], the IC50 fell in the range of 0.01 to 1 nM.
